Test results from US20220339110A1, “FAST CONSOLIDATING COMPOUNDS” (Universität Innsbruck, priority 2019, published 2022).
Values belong to the molecule of their own block, whether it stands above or below them.

Key:
Type in all cases: physicochemical
[1] = Moulding process: time to stable tablets (consolidation/solidification time) and liquid amount after wetting the powder; details: for consolidation/solidification time (in words): wetted with water
Procedure: α-Lactose anhydrate was transferred into wells of a moulding form and wetted with pure water and water/alcohol mixtures, as shown in FIG. 2. Pure water and aqueous EtOH solutions, 25% (v/v) and 50% EtOH (v/v), ratio by volume, were used as solvents. These experiments were performed to measure the time needed for the formation of stable tablets, to determine the optimal amount of solvent, and to determine the optimal water:alcohol ratio in water/alcohol mixtures.
The solidification time (time until the tablets show sufficient hardness for handling) after addition of the solvent was determined using pure water and an aqueous glucose solution. It was observed that the solidification time of anhydrous glucose is much shorter when glucose solutions are applied instead of pure water. Glucose anhydrate solidifies after 10-15 min when water is used but hardens within 2-6 minutes after the application of glucose solutions. The amount of glucose in the solution is less critical for the solidification time, a concentration of 25 wt % is sufficient.
The moulding form tests were carried out with two different solvents: a) water and b) 50% EtOH (v/v) solution.
In a first experiment, tablets with amorphous Ca-L-Lactate (L-CaLac) using pure water were produced.
Wetting partly anhydrous MgSO4 (7 wt % water content) with pure water results in solid tablets. After 5 minutes the tablets can be unbaged from the moulding form. The wettability is not as good as for the α-lactose powders. About 50-60 μl water were added per 100 mg powder. By using a saturated aqueous solution of MgSO4 the hardening time could be halved (2-3 minutes).

[2] = Drug load capacity test of moulded tablets with glass beads (Spheriglass 2429); details: for Consolidation time (in words) / Consolidation time: loaded with glass beads; for time to solid/stable tablets (in words): mixture with Spheriglass 2429 (50 wt % where stated), water
Source text: As model substance for the drug load capacity test, Spheriglass 2429 (glass beads, Potters Europe) was used, because there are no interactions between the glass beads and lactose to exclude other effects. Spheriglass 2429 has a particle size distribution of 53-106 μm. It was mixed with refluxed and sieved Spherolac 100 anhydrate (Spherolac 100 AH) (<250 μm) in a ratio of 30 and 60 wt %. […] The higher the amount of Spheriglass 2429 the less binder solution is needed, because of the decreasing amounts of water binding excipients.
A mixture of 50 wt % anhydrous glucose and 50 wt % Spheriglass 2429 was wetted with a 25 wt % glucose solution and pure water. The aim of this experiment was to investigate if the consolidation time is slowed down by loading a slower solidifying hydrate (in comparison to α-Lactose anhydrate) with a non-matrix-forming substance. […] The advantages of the use of glucose are rather seen as additive to other fast consolidating excipients to improve or modify the consolidation process, its rate, and the properties of the product.

[3] = Permanent stability of Na2SO4 tablets with binder in the wetting liquid
Procedure: Attempts were undertaken to ensure the permanent stability of the Na2SO4 (decahydrate) tablets by adding binder polymers to the wetting liquid. Amounts of 5 wt % and 7.5 wt % aqueous PVA 388 solutions were tested. […] The tests show the possibility of a new approach: rapid solidification by hydrate formation and permanent stability through additional binders.

[4] = Tablet hardness, three-point-break tester; details: 200 mg
Procedure: The tablet hardness was measured with a three-point-break tester by Charles Ischi AG (HC 6.2 50 N).

[5] = Mercury intrusion porosimetry of lactose tablets
Procedure: The porosity, ratio between the sample void volumes and its external volume, of a tablet should be high if a fast disintegration is desired (e.g. for sublingual tablets). Porosity was measured using mercury porosimetry. For a complete mercury intrusion porosimetry (MIP) measurement, two different porosimeter types are needed—a low-pressure porosimeter (LP-MIP) and a high-pressure porosimeter (HP-MIP). As the LP-MIP, Pascal 140 (Thermo Fisher Scientific, I-Milano) was used and the Porosimeter 2000 (Carlo Erba, I-Milano) as the HP-MIP. Pure Spherolac 100 was used for the experiments.

[6] = Disintegration time of lactose tablets
Source text: Mercury porosimetry of the 3D-powder printed tablet indicated a porosity of 63.8% and an average pore radius of 48 Micron. […] Also the tablets produced by the molding process show porosities around 50% whereas those of the pressed tablets are much smaller. The high porosity guarantees a fast intrusion of fluids into the tablet and is thus an important prerequisite of a fast disintegration.

[7] = Mercury intrusion porosimetry of lactose tablets; details: 3D-powder printed tablet; calculated value
[8] = 5 wt % PVA 388 in 50% EtOH (v/v)
[9] = 7.5 wt % PVA 388 in 50% EtOH (v/v)
[10] = 10 wt % PVA 388 in 50% EtOH (v/v)
[11] = production method: 3D-powder printing
[12] = production method: moulding process
[13] = 50 wt % Spheriglass 2429, 25 wt % glucose solution and pure water
[14] = production method: compaction 10 kN
[15] = production method: compaction 30 kN

Compound: O=S(=O)([O-])[O-].[Na+].[Na+] [Na2SO4 anhydrate]
Consolidation time (in words) ([1]; 50% EtOH (v/v) solution): within one minute
Consolidation time (in words) ([1]; solution: water): few seconds
consolidation/solidification time (in words) [1]: within a few seconds
Consolidation time (in words) ([2]; solvent H2O): few seconds
time to solid/stable tablets (in words) [2]: within a few seconds
mechanical stability of tablets (in words) ([3]; 7.5 wt % aqueous PVA 388 solution, after drying two and a half days at 22° C. or 40° C.): mechanically stable tablets
mechanical stability of tablets the next day (in words) ([3]; wetted with 5 wt % aqueous PVA 388 solution): still could be easily crushed

Compound: OC[C@H]1O[C@@H](O[C@H]2[C@H](O)[C@@H](O)[C@@H](O)O[C@@H]2CO)[C@H](O)[C@@H](O)[C@H]1O [Stable α-Lactose anhydrate]
Consolidation time ([1]; solution: water): 0.083 to 0.167 min
time to stable tablets ([1]; water/alcohol mixtures (25% and 50% EtOH v/v)): more than 10 seconds
time to stable tablets ([1]; wetting with pure water): 5 to 10 s
Consolidation time (in words) ([2]; solvent H2O): few seconds
Consolidation time (in words) ([2]; solvent H2O/EtOH 1:1): few seconds

Compound: OC[C@H]1O[C@@H](O[C@H]2[C@H](O)[C@@H](O)[C@@H](O)O[C@@H]2CO)[C@H](O)[C@@H](O)[C@H]1O [Spherolac 100 AH]
Average hardness of tablet [4, 8]: 10.45 N
Average hardness of tablet ([4]; 5 wt % aq. PVA 388): 8.65 N
Average hardness of tablet [4, 9]: 16.75 N
Average hardness of tablet ([4]; 7.5 wt % aq. PVA 388): 12.2 N
Average hardness of tablet [4, 10]: 20.2 N
Average hardness of tablet ([4]; 10 wt % aq. PVA 388): 14.75 N
Average hardness of tablet ([4]; binder solution: water): 9.4 N
time to stable tablets after wetting (in words) ([2]; mixed with Spheriglass 2429 at 30 and 60 wt %): within a few seconds
Average Pore Radius ([5]; 3D-powder printed tablet): 48 Micron
porosity (mercury porosimetry) ([5]; 3D-powder printed tablet): 63.8%
Average Pore Radius [5, 11]: 48 μm
Porosity [5, 11]: 63.8%
Average Pore Radius [5, 12]: 2.4 μm
Porosity [5, 12]: 49%
Porosity ([5]; tablets produced by the molding process): around 50%
disintegration time (in words) ([6]; printed tablets): few seconds
calculated porosity [7]: 71.3%

time to stable tablets ([1]; pure water, with seed crystals of the dodecahydrate (about 2%)): 60 to 240 s
Consolidation time ([1]; solution: water): 1 to 4 min
solidification time ([1]; without seed crystals): about 4 min
time to stable tablets ([2]; 50% wt Spheriglass 2429, wetting with water): ≥ 10 min
Consolidation time ([2]; solvent H2O): >10 min
Compound: O=C([O-])CC(O)(CC(=O)[O-])C(=O)[O-].O=C([O-])CC(O)(CC(=O)[O-])C(=O)[O-].[Mg+2].[Mg+2].[Mg+2] [Mg Citrate anhydrate, anhydrous Mg Citrate]

solidification time ([1]; glucose solutions applied): 2 to 6 min
Consolidation time ([1]; solution: aqueous glucose solution (25-50 wt %)): 2 to 6 min
Consolidation time ([1]; solution: water): ca. 10 min
solidification time ([1]; water): 10 to 15 min
state of tablets after 10 minutes [2, 13]: still rather soft
time after which tablets could be removed (in words) [2, 13]: After four minutes
Consolidation time ([2]; solvent H2O): >10 min
Compound: OC[C@H]1OC(O)[C@H](O)[C@@H](O)[C@@H]1O (some centres unmarked) [Glucose anhydrate]

Compound: O.O=S(=O)([O-])[O-].O=S(=O)([O-])[O-].[Ca+2].[Ca+2] [Calcium sulphate hemihydrate, reference compound]
Consolidation time ([1]; solution: water): ca. 35 min

Consolidation time ([1]; solution: water): 1 to 2 min
consolidation/solidification time (in words) [1]: within one minute
solidification time ([2]; 50 wt % Spheriglass 2429, 50% EtOH (v/v) binder solution): ca. 45 min
Consolidation time ([2]; solvent H2O): 1 to 2 min
Compound: C[C@H](O)C(=O)[O-].C[C@H](O)C(=O)[O-].[Ca+2] [Ca-Lactate anhydrate, anhydrous Ca-Lactate]

Consolidation time (in words) ([1]; 50% EtOH (v/v) solution): about four to five minutes
Consolidation time (in words) ([1]; solution: water): few seconds
consolidation/solidification time (in words) [1]: within a few seconds
Consolidation time ([2]; solvent H2O): 2 min
Consolidation time ([2]; solvent H2O/EtOH 1:1): 4 min
time to solid/stable tablets (in words) [2]: Two minutes
time after which tablets could be removed ([2]; with Spheriglass, 50% EtOH (v/v) solution): 2 to 4 min
Compound: OC[C@H]1O[C@H](OC[C@H]2O[C@H](O[C@]3(CO)O[C@H](CO)[C@@H](O)[C@@H]3O)[C@H](O)[C@@H](O)[C@@H]2O)[C@H](O)[C@@H](O)[C@H]1O [Raffinose anhydrate]

Compound: O=S(=O)([O-])[O-].[Mg+2] [MgSO4 anhydrate]
Consolidation time (in words) ([1]; solution: water): few seconds
consolidation/solidification time (in words) [1]: within a few seconds
Consolidation time (in words) ([2]; solvent H2O): few seconds
time to solid/stable tablets (in words) [2]: after a few seconds

Compound: O.OC[C@H]1O[C@@H](O[C@H]2[C@H](O)[C@@H](O)[C@@H](O)O[C@@H]2CO)[C@H](O)[C@@H](O)[C@H]1O [Spherolac 100 MH, α-Lactose monohydrate]
Average hardness of tablet [4, 8]: 5.85 N
Average hardness of tablet [4, 9]: 8.1 N
Average hardness of tablet [4, 10]: 13.1 N
Average Pore Radius [5, 14]: 0.6 μm
Porosity [5, 14]: 12%
Average Pore Radius [5, 15]: 0.2 μm
Porosity [5, 15]: 5%
disintegration time (in words) ([6]; tablets produced at compaction pressure of 30 kN): several minutes
